Measured values: article PMC12029531, “Selenium in Action: Exploring the Biological Wonders of Hydroselenite Salts” (Molecules, 2025)
Converted amounts (≈) assume the structure as drawn. Where two headings read alike, the source gives them in different places.

Key:
[1] = system: Bacillus sphaericus; test: MIC and MBC, broth micro-dilution; assay type: cell-based; settings: B. sphaericus; for MIC: 24 h
[2] = system: Klebsiella pneumoniae; test: MIC and MBC, broth micro-dilution; assay type: cell-based; settings: K. pneumoniae; for MIC: 24 h
[3] = system: Pseudomonas aeruginosa; test: MIC and MBC, broth micro-dilution; assay type: cell-based
[4] = system: Staphylococcus epidermidis; test: MIC and MBC, broth micro-dilution; assay type: cell-based; settings: S. epidermidis; for MIC: 24 h
[5] = system: U251 cell line; test: Cytotoxicity of selenous acid (MTS assay, Figure S60); assay type: cell-based, human; settings: U251, 48 h, 1–100 µM
Excerpt: The striking difference in the potency of Se salts as compared to their corresponding parent compounds raises a question: Could the release of the Se salt part of the molecules be solely responsible for these activities? Nevertheless, after thoroughly analyzing the in vitro antiproliferative activities and the structure of the reported compounds, our initial hypothesis is that the antitumor activity of the new selenium salts might not be due to the release of the Se inorganic, as evinced by the following four experimental outcomes: (1) All the salt compounds should have shown similar efficacy at the same molar concentrations if the toxicity was solely due to the release of the Se salt part. […] To confirm this hypothesis and due to the scarce number of reported antitumor activities of selenous acid, we evaluated H2SeO3 in the U251 cell line in our experimental setup. […] Since the IC50 value of selenous acid is in the range of what is observed for SLT-1-6 (Table 3), the increased antiproliferative activity of the salts might or might not be linked to the release of the Se salt fragment of the molecule. […] Further studies are needed to fully characterize and understand the behavior of these selenous salts.
Figure S58. Dose-response curves of SLT-6 in all the cell lines present in the NCI panel.
Figure S59. […]
Cell viability was assessed using an MTS assay. […]

[6] = system: Staphylococcus aureus; test: MIC and MBC, broth micro-dilution; assay type: cell-based; settings: S. aureus; for MIC: 24 h
[7] = system: Escherichia coli; test: MIC and MBC, broth micro-dilution; assay type: cell-based; settings: E. coli; for MIC: 24 h
[8] = system: U251 (glioblastoma cancer); test: MTT antiproliferative assay; assay type: cell-based, human; settings: U251, 48 h, mean ± SD
[9] = system: DU-145 (prostate cancer); test: MTT antiproliferative assay; assay type: cell-based, human; settings: DU-145, 48 h, mean ± SD
[10] = system: Panc-1 (pancreatic cancer); test: MTT antiproliferative assay; assay type: cell-based, human; settings: mean ± SD
[11] = system: normal human dermal fibroblasts (NHDF); test: MTT assay in non-malignant cells; assay type: cell-based; settings: 48 h, mean ± SD
[12] = system: MCF-7 (human breast adenocarcinoma cells); test: MTT antiproliferative assay; assay type: cell-based; settings: MCF-7, 48 h, mean ± SD
[13] = system: Panc-1 cells; settings: several experimental conditions; cited from earlier work
[14] = Lysinibacillus sphaericus, read-out: MIC
[15] = Lysinibacillus sphaericus, read-out: MBC
[16] = Pseudomonas aeruginosa; P. aeruginosa, 24 h; read-out: MIC
[17] = Pseudomonas aeruginosa; P. aeruginosa; read-out: MBC
[18] = Staphylococcus aureus, read-out: MIC
[19] = Escherichia coli, read-out: MIC
[20] = Escherichia coli, read-out: MBC
[21] = Klebsiella pneumoniae, read-out: MBC
[22] = Klebsiella pneumoniae, read-out: MIC
[23] = Staphylococcus epidermidis, read-out: MIC
[24] = Staphylococcus epidermidis, read-out: MBC
[25] = Staphylococcus aureus, read-out: MBC

In the case of `O=[Se](O)O` [H2SeO3, selenous acid], the MBC [1] is reported as 200 µg/mL (≈ 1550 µM), the MIC [1] is reported as 100 µg/mL (≈ 775 µM) and the MBC [2] is reported as 200 µg/mL (≈ 1550 µM). For the same compound, the MIC [2] was 100 µg/mL (≈ 775 µM), the MBC ([3]; P. aeruginosa) was >200 µg/mL and the MIC ([3]; P. aeruginosa, 24 h) was 200 µg/mL (≈ 1550 µM). It also gave an MBC [4] of 200 µg/mL (≈ 1550 µM), an MIC [4] of 100 µg/mL (≈ 775 µM) and an IC50 [5] of 1.04 µM. The MBC [6] was 200 µg/mL (≈ 1550 µM), the MIC [6] was 100 µg/mL (≈ 775 µM) and the MBC [7] was >200 µg/mL. It also gave an MIC [7] of 200 µg/mL (≈ 1550 µM).
For `CNC(C)C1CCC(N)C(OC2C(N)CC(N)C(OC3OCC(C)(O)C(NC)C3O)C2O)O1` (stereo not drawn) [AB-6, gentamicin], the MIC [1, 14] was 0.2 µg/mL (≈ 0.419 µM), the MBC [1, 15] was 0.78 µg/mL (≈ 1.63 µM) and the IC50 [8] was > 100 µM. For the same compound, the MBC [2] was 3.13 µg/mL (≈ 6.55 µM), the MIC ([2]; Klebsiella pneumoniae) was 1.56 µg/mL (≈ 3.27 µM) and the IC50 [9] was > 100 µM. For the same compound, the IC50 ([10]; Panc-1, 48 h) was > 100 µM, the MIC [3, 16] was 6.56 µg/mL (≈ 13.7 µM) and the MBC [3, 17] was 12.5 µg/mL (≈ 26.2 µM). For the same compound, the MBC [4] was 0.39 µg/mL (≈ 0.817 µM), the MIC [4] was 0.39 µg/mL (≈ 0.817 µM) and the IC50 [11] was > 100 µM. The IC50 [12] was > 100 µM, the MBC [6] was 50 µg/mL (≈ 105 µM) and the MIC [6, 18] was 25 µg/mL (≈ 52.3 µM). It also gave an MIC [7, 19] of 25 µg/mL (≈ 52.3 µM) and an MBC [7, 20] of 25 µg/mL (≈ 52.3 µM).
With `NNC(=O)c1ccncc1` [AB-5, isoniazid] the MIC [1, 14] was > 200 µg/mL, the MBC [1, 15] was > 200 µg/mL and the IC50 [8] was > 100 µM. The MBC [2, 21] was > 200 µg/mL, the MIC [2, 22] was > 200 µg/mL and the IC50 [9] was 99.92 ± 0.2 µM. For the same compound, the IC50 ([10]; Homo sapiens, PANC-1, 48 h) was > 100 µM, the MIC [3, 16] was > 200 µg/mL and the MBC [3, 17] was > 200 µg/mL. For the same compound, the MIC [4, 23] was > 200 µg/mL, the MBC [4, 24] was > 200 µg/mL and the IC50 [11] was 41.2 ± 12.1 µM. For the same compound, the IC50 [12] was > 100 µM, the MIC [6, 18] was > 200 µg/mL and the MBC [6, 25] was > 200 µg/mL. The MIC [7, 19] was > 200 µg/mL and the MBC [7, 20] was > 200 µg/mL.
In the case of `O=[Se]([O-])[O-].[Na+].[Na+]` [sodium selenite], the IC50 [13] is listed as “low micromolar range”.
With `Nc1ccc(S(=O)(=O)Nc2ncccn2)cc1` [AB-4, sulfadiazine] the MIC [1, 14] was > 200 µg/mL, the MBC [1, 15] was > 200 µg/mL and the IC50 [8] was > 100 µM. The MBC [2, 21] was > 200 µg/mL, the MIC [2, 22] was > 200 µg/mL and the IC50 [9] was > 100 µM. The IC50 ([10]; Panc-1, 48 h) was > 100 µM, the MIC ([3]; P. aeruginosa, 24 h) was 50 µg/mL (≈ 200 µM) and the MBC [3, 17] was > 200 µg/mL. The MIC [4] was >200 µg/mL, the MBC [4, 24] was > 200 µg/mL and the IC50 [11] was > 100 µM. For the same compound, the IC50 [12] was > 100 µM, the MIC [6, 18] was > 200 µg/mL and the MBC [6, 25] was > 200 µg/mL. For the same compound, the MIC [7, 19] was > 200 µg/mL and the MBC [7, 20] was > 200 µg/mL.
In the case of `COc1cc(Cc2cnc(N)nc2N)cc(OC)c1OC` [AB-2, trimethoprim], the MIC [1, 14] is reported as 1.56 µg/mL (≈ 5.37 µM), the MBC [1, 15] is reported as 6.25 µg/mL (≈ 21.5 µM) and the IC50 [8] is reported as > 100 µM. The MBC [2, 21] was 12.5 µg/mL (≈ 43.1 µM), the MIC [2, 22] was 3.13 µg/mL (≈ 10.8 µM) and the IC50 [9] was > 100 µM. For the same compound, the IC50 ([10]; Homo sapiens, PANC-1, 48 h) was > 100 µM, the MIC ([3]; Pseudomonas aeruginosa, 24 h, P. aeruginosa, 24 h; read-out: MIC) was 50 µg/mL (≈ 172 µM) and the MBC [3, 17] was > 200 µg/mL. The MIC [4, 23] was > 200 µg/mL, the MBC [4, 24] was > 200 µg/mL and the IC50 ([11]; Homo sapiens) was 6.47 ± 1.79 µM. For the same compound, the IC50 [12] was > 100 µM, the MIC [6, 18] was 1.56 µg/mL (≈ 5.37 µM) and the MBC [6, 25] was 3.13 µg/mL (≈ 10.8 µM). It also gave an MIC [7, 19] of 1.56 µg/mL (≈ 5.37 µM) and an MBC [7, 20] of 6.25 µg/mL (≈ 21.5 µM).
For `Nc1ccc(S(=O)(=O)c2ccc(N)cc2)cc1` [AB-3, dapsone], the MBC [1] was >200 µg/mL, the MIC [1] was >200 µg/mL and the IC50 [8] was > 100 µM. For the same compound, the MBC [2] was >200 µg/mL, the MIC [2] was >200 µg/mL and the IC50 [9] was > 100 µM. The IC50 ([10]; Homo sapiens, PANC-1, 48 h) was > 100 µM, the MBC ([3]; P. aeruginosa) was >200 µg/mL and the MIC ([3]; P. aeruginosa, 24 h) was >200 µg/mL. For the same compound, the MBC [4] was >200 µg/mL, the MIC [4] was >200 µg/mL and the IC50 [11] was > 100 µM. The IC50 [12] was > 100 µM, the MBC [6] was >200 µg/mL and the MIC [6] was >200 µg/mL. For the same compound, the MBC [7] was >200 µg/mL and the MIC [7] was >200 µg/mL.
